Test results published in the METLIN SMRT retention time set (Domingo-Almenara et al. 2019).

Test: gradient 5% acetonitrile 3 min, to 50% in 2 min, to 85% in 15 min, held 3 min, 100 µL/min
Conditions: column: Zorbax Extend-C18 2.1 x 50 mm; eluents: water / acetonitrile, 0.1% formic acid
How it was run: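 In both positive and negative ionization mode, a quadrupole time-of-flight mass spectrometer coupled to HPLC analyzed pure standards run in mixtures of ~100 molecules. The Zorbax Extend-C18 column (2.1 × 50 mm, 1.8 μm) was operated at 100 μL/min with water and acetonitrile, each containing 0.1% formic acid. The dead volume was 40 μL and the dwell volume 900 μL. Retention time came from adduct peaks that were computationally picked and individually inspected by hand.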

SMILES	RP-LC retention time
COc1ccc(-c2c(C(=O)Nc3cccc(C(C)=O)c3)nc3ccccn23)cc1	937 s
CCOc1cc2ncc(C#N)c(Nc3ccc(OCc4ccccn4)c(Cl)c3)c2cc1NC(=O)/C=C/CN(C)C	620 s
O=S(=O)(c1ccc2c(c1)-c1oncc1CO2)N1CCCc2ccccc21	1020 s
Cc1ccc(C)c2sc(NCc3ccccn3)nc12	641 s
Cc1ccc(N2C(=O)C3N=NN(Cc4nc(-c5ccccc5Br)no4)C3C2=O)cc1C (stereo not given)	1030 s
CCCNC(=O)CCc1nc2ccccc2n(CC(=O)NCc2ccccc2)c1=O	1270 s
CS(=O)(=O)c1nc2ccc(NS(=O)(=O)c3cc(F)cc(F)c3)cc2s1	858 s
Cn1cnc2cc(-c3noc(CNC(=O)Cc4ccc(Cl)cc4)n3)ccc21	652 s
CC(C)n1c(CCNC(=O)Cc2ccc(F)cc2)nc2cccnc21	672 s
CC(C)Cn1cc(CCNS(=O)(=O)c2ccc(Cl)s2)c2cccnc21	987 s
N#CC(c1ccc(Cl)cc1)c1c(Cl)cc(N2NCC(=O)NC2=O)cc1Cl (stereo not given)	1020 s
Cc1nn(C)c(=O)c2cc(S(=O)(=O)NCc3ccc(Cl)cc3)cn12	822 s
O=C1CC(c2cccc(F)c2)c2c(c(C(=O)O)cn2-c2ccc(F)cc2)N1 (stereo not given)	774 s
CCCN(Cc1ccccc1)Cc1cc(=O)n2cc(Cl)ccc2n1	649 s
Cc1ccc(NC(=O)c2cnc(-c3ccccc3)nc2-c2ccncc2)c(Br)c1	987 s
CCCN(C(=O)CC(=O)OC)c1nc(-c2ccc(Br)cc2)cs1	1240 s
COC(=O)c1ccc(-c2nc3cnccn3c2Nc2cc(C)cc(C)c2)cc1	978 s
O=C(C1=CN(c2ccc(Br)cc2)c2cc(Cl)ccc2S1(=O)=O)N1CCOCC1	924 s
COc1ccc(Nc2c(-c3ccc(N(C)C)cc3)nc3cnccn23)cc1	740 s
COc1ccc(NC(=O)C2c3cc(OC)c(OC)cc3C(=O)N(C)C2c2cccnc2)cc1Cl (stereo not given)	660 s

SMILES	RP-LC retention time
CC(Oc1ccc(C(C)(C)C)cc1)C(=O)N(Cc1ccco1)C1CCS(=O)(=O)C1 (stereo not given)	1050 s
O=[n+]1c2c(n([O-])c3ccccc31)-c1cccc3cccc-2c13	767 s
COC(=O)c1cccc(COC(=O)C2=CN(C)S(=O)(=O)N=C2C)c1	874 s
Cc1cccc(-c2noc(-c3nc(C)no3)n2)c1	1050 s
CCOc1ccc2ncc(S(=O)(=O)c3ccc(OC)cc3)c(N3CCOCC3)c2c1	919 s
COc1cccc(-c2ccnc3nc(-c4cccs4)nn23)c1	906 s
Cc1noc(C)c1-c1ccc(S(=O)(=O)Nc2ccc(C#N)cc2)cc1	874 s
CN1C(=O)[C@H]2CN(Cc3ccc(F)cc3Cl)C[C@H]2C1=O	642 s
CCCN1C(=O)COc2ccc(-c3noc(-c4ccc(OCC)cc4)n3)cc21	1320 s
CN1c2cc(F)ccc2C(=O)NC12CCN(C(=O)NCCc1ccccc1)CC2	761 s
COc1ccc(C(=O)CC2(O)C(=O)Nc3ccc(C)cc32)c(OC)c1 (stereo not given)	685 s
COc1ccc(OCc2nc3ccc(C)cc3[nH]2)cc1	578 s
CCC(C)C(NC(=O)c1cccs1)C(=O)Nc1nc2ccccc2[nH]1 (stereo not given)	692 s
CC(C)(C)c1ccc(S(=O)(=O)c2nnn(-c3ccc4c(c3)OCCO4)c2N)cc1	944 s
Cn1c(=O)c2ccn(CC(=O)N3CCN(c4ccc(Cl)cc4)CC3)c2n(C)c1=O	752 s
CCOc1ccc(-c2noc(Cc3nnc(-c4ccc(F)cc4)o3)n2)cc1	1050 s
COc1cccc2sc(NC(=O)c3coc4ccccc4c3=O)nc12	921 s
CN(CC1(C)CCOCC1)S(=O)(=O)c1ccccc1C(F)(F)F	820 s
CC(=O)Nc1cccc2c(C(=O)NC(C)c3ccc(C)cc3C)ccnc12 (stereo not given)	896 s

The remaining lines, values ahead:

RP-LC retention time	SMILES
783 s	Cc1cc(C)cc(NC(=O)C2CCCN(c3cc(=O)n(C)c(=O)n3C)C2)c1 (stereo not given)
1190 s	Cc1ccccc1NC(=O)C1CCCN(c2nc3ccccc3nc2C(F)(F)F)C1 (stereo not given)
745 s	O=C(NCCCN1CCC(Cc2ccccc2)CC1)C1CCCN(S(=O)(=O)N2CCCCC2)C1 (stereo not given)
641 s	COc1ccc(-c2cn3cccnc3n2)cc1NC(=O)c1ccc(OC)c(OC)c1
1030 s	CC1CCN(c2cc(-n3cnc(C(=O)Nc4ccc5c(c4)OCCO5)c3)ncn2)CC1
810 s	COc1ccc(C)cc1NC(=O)N1CCC(OC2CCN(S(C)(=O)=O)CC2)CC1
618 s	COc1ccc(NC(=O)c2cccn(C)c2=O)cc1N1CCCC1=O
1010 s	Cc1ccc(NC(=O)CSc2nnc3c4cc(-c5ccc(Cl)cc5)nn4ccn23)cc1F
693 s	COc1cccc(S(=O)(=O)N2CCCC(Cn3c(C)nc4cccnc43)C2)c1 (stereo not given)
730 s	CCn1ccc(NC(=O)NC2CCCC2)n1
849 s	CSc1cccc(NC(=O)C2CCN(C(=O)c3ncn4c3COC(c3ccc(F)cc3)C4)CC2)c1 (stereo not given)
964 s	COc1cccc(-c2noc(C3CCCN3C(=O)Nc3ccc(Br)cc3)n2)c1 (stereo not given)
782 s	CCOC(=O)CC(NC(=O)N1CCC2(CC1)NC(=O)c1ccccc1O2)c1ccccc1 (stereo not given)
664 s	CCOC(=O)C1CCN(Cc2nc(-c3ccc(N4CCCCC4)nc3)no2)CC1
785 s	Cc1ccsc1C(=O)NCC12CCCC=C1N(C)C(=O)CC2 (stereo not given)
691 s	CC(=O)Nc1ccc(N(Cc2nnc3n2CCCCC3)C(=O)Nc2cccc(Cl)c2)cc1
579 s	O=C(NCc1ccccc1)c1ccc(=O)n(CCN2CCCC2)c1
585 s	CN(C)[C@@H]1CN(Cc2cccc(OC(F)(F)F)c2)CC[C@@H]1CO
750 s	O=C(NC1CC1)C1c2ccccc2CC(=O)N1Cc1ccccc1 (stereo not given)
614 s	CCOc1ccc(CNC(=O)c2cn3c(n2)COCC3)cc1
655 s	CCCNC(=O)C1CCCN(c2ccc(SCC(=O)Nc3ccccc3C)nn2)C1 (stereo not given)
1010 s	Cc1ccc(CNC(=O)CCC2CCCN(S(=O)(=O)c3ccccc3C)C2)cc1 (stereo not given)
647 s	COc1ccc(-c2nnc(CC(=O)N3CCOCC3)o2)cc1
661 s	Cc1ccc(CNC(=O)N2CCC(C(=O)NCc3csc(C)n3)CC2)cc1
737 s	O=C(Cn1nc2c(N3CCSCC3)nccn2c1=O)Nc1ccc2c(c1)OCCO2
986 s	O=C(NCc1ccc(Cl)cc1)c1ccc(Oc2nccnc2N2CCSCC2)cc1

RP-LC retention time	SMILES
824 s	CCN1c2ccc(F)cc2C(=O)NC12CCN(C(=O)c1ccc(C)cc1)CC2
652 s	Cc1scc2nc(C(=O)NC3CCCCC3)nc(N(C)C)c12
776 s	COC(=O)c1c(C)[nH]c(C(=O)N2CCCC(C(=O)NCc3ccccc3C)C2)c1C (stereo not given)
930 s	CCCNC(=O)c1cc(-c2ccc(F)cc2)cn1C
894 s	Cc1cc(C(=O)Nc2nnc(SCC(=O)N3CCCc4ccccc43)s2)c(C)o1
857 s	O=C(c1cc2ccccc2[nH]1)N1CCCC(c2nnc(C(F)(F)F)o2)C1 (stereo not given)
936 s	Cc1nc(Cn2cccc2C(=O)Nc2cccc(Br)c2)no1
695 s	O=C(NCc1ccccc1C(F)(F)F)C1CCN(c2cncnc2N2CCCC2)CC1
666 s	CCN1CCN(C(=O)C(C)C2CCN(S(=O)(=O)c3ccc(Cl)s3)CC2)CC1 (stereo not given)
798 s	COCCNC(=O)CSc1nccnc1Oc1ccc(C)cc1
601 s	CCCn1cnnc1C1CCN(Cc2cccc(OCC)c2)CC1
922 s	Cc1ccccc1S(=O)(=O)N1CCC(C(=O)NCCc2csc(-c3cccs3)n2)CC1
595 s	O=C(CC1CCN(C(=O)C2CCCCC2)CC1)NCCCN1CCCC1
887 s	O=C(NCCc1ccccc1)NCCC1CCN(S(=O)(=O)c2ccc(F)cc2)CC1
701 s	O=C(COc1ccc(Cl)cc1Cl)NC1CC(=O)N(C2CC2)C1 (stereo not given)
816 s	O=C(Cc1nnc2cc(-c3nc(C4CC4)no3)ccn12)Nc1ccc(Cl)cc1
642 s	CCCN(C)c1nccn2c(=O)n(CC(=O)Nc3ccc4c(c3)OCCO4)nc12
952 s	Cc1ccc(CNC(=O)N2CCc3nc(-c4ccc(F)cc4)ncc3C2)cc1
704 s	Cc1ccccc1Cn1cc(-c2ccncc2)cc1C(=O)NCC1CC1
990 s	Cc1cc2nn(CC(=O)N3CCC(C)CC3)c(=O)n2c(Nc2ccc(F)cc2)n1
813 s	Cc1nsc2ncc(C(=O)N3CCOCC3)c(N3CCC(C(=O)Nc4ccccc4Br)CC3)c12
791 s	O=C(Cn1c(=O)c2cc(C3CC3)nn2c2ncccc21)NCc1ccc(Cl)cc1
834 s	CCOc1ccccc1NC(=O)N1CCC2(CC1)NC(=O)c1ccc(Cl)cc1N2
791 s	Cn1nccc1C(=O)Nc1ccc(Br)cc1
611 s	CCCN1CCN(c2ccc(NC(=O)C(C)(C)C)c(C(=O)O)c2)CC1
